According to US7592329B2, “Crystalline complexes of fluticasone-2-furoate” (Glaxo Group Limited, priority 2003, dated 2009):
“Also recorded” adds a separate entry of the source.

Legend:
glucocorticoid receptor = target: T1, glucocorticoid receptor (Homo sapiens, UniProt P04150); assay: In vitro functional glucocorticoid assays, metabolite versus parent; format: cell-based
T1 sequence (P04150 1-777): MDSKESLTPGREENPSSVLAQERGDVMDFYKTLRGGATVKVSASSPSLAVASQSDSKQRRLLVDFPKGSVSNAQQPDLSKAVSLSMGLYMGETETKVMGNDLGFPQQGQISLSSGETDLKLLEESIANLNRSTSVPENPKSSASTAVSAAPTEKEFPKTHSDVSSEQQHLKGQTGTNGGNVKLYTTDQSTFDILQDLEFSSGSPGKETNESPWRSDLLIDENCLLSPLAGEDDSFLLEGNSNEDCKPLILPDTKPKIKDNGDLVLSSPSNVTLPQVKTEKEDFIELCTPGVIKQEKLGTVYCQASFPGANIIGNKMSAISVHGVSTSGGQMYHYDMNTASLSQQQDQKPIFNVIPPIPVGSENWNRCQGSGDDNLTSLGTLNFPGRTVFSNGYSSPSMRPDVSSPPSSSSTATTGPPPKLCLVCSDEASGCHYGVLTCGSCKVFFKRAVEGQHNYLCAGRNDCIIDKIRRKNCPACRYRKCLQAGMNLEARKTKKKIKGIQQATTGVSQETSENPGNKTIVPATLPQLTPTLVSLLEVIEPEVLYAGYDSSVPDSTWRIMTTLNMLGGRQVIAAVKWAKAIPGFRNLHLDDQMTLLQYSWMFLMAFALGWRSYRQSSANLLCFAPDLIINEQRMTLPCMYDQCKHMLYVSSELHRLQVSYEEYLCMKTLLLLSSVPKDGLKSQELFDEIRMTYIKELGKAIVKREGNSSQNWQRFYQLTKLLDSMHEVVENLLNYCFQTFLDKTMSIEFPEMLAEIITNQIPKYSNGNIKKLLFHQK
Protocol: Compound (I) undergoes highly efficient hepatic metabolism to yield the 17-β carboxylic acid (X) as the sole major metabolite in rat and human in vitro systems.
Pharmacological activity was assessed in a functional in vitro assay of glucocorticoid agonist activity which is generally predictive of anti-inflammatory or anti-allergic activity in vivo.
The functional assay was based on that described by K. P. Ray et al., Biochem J. (1997), 328, 707-715. A549 cells stably transfected with a reporter gene containing the NF-κB responsive elements from the ELAM gene promoter coupled to sPAP (secreted alkaline phosphatase) were treated with test compounds at appropriate doses for 1 hour at 37° C. The cells were then stimulated with tumour necrosis factor (TNF, 10 ng/ml) for 16 hours, at which time the amount of alkaline phosphatase produced is measured by a standard colourimetric assay. […]
In a variant of the above method, to monitor these functions, two reporter plasmids have been generated and introduced separately into A549 human lung epithelial cells by transfection. […] After incubation for 1 h 0.5 ng/ml TNFα (R&D Systems) was added and after a further 15 hours at 37° C., the levels of firefly and renilla luciferase were measured using the Packard Firelite kit following the manufacturers' directions. Dose response curves were constructed from which EC50 values were determined.

[1] = target: glucocorticoid receptor (GR) (Homo sapiens, UniProt P04150); assay: Transactivation (GR) renilla luciferase reporter assay in A549 cells; format: cell-based; conditions: GRE renilla luciferase reporter, read-out: Transactivation (GR) ED50
Excerpt: The glucocorticoid receptor (GR) can function in at least two distinct mechanisms, by upregulating gene expression through the direct binding of GR to specific sequences in gene promotors, and by downregulating gene expression that is being driven by other transcription factors (such as NFκB or AP-1) through their direct interaction with GR.
The first cell line contains the firefly luciferase reporter gene under the control of a synthetic promoter that specifically responds to activation of the transcription factor NFκB when stimulated with TNFα. The second cell line contains the renilla luciferase reporter gene under the control of a synthetic promotor that comprises 3 copies of the consensus glucocorticoid response element, and which responds to direct stimulation by glucocorticoids. Simultaneous measurement of transactivation and transrepression was conducted by mixing the two cell lines in a 1:1 ratio in 96 well plate (40,000 cells per well) and growing overnight at 37° C. Test compounds were dissolved in DMSO, and added to the cells at a final DMSO concentration of 0.7%. After incubation for 1 h 0.5 ng/ml TNFα (R&D Systems) was added and after a further 15 hours at 37° C., the levels of firefly and renilla luciferase were measured using the Packard Firelite kit following the manufacturers' directions. Dose response curves were constructed from which EC50 values were determined.

human hepatocytes = assay: In vitro metabolism in human hepatocytes; format: in vitro ADME; conditions: 17-β carboxylic acid (X) the only significant metabolite
rat hepatocytes = assay: In vitro metabolism in rat hepatocytes; format: in vitro ADME; conditions: 17-β carboxylic acid (X) the only significant metabolite
[2] = Pharmacokinetics after intra-tracheal dry powder dosing in the pig; format: in vivo; conditions: for time after dosing up to which quantifiable in plasma: anaesthetised pigs, 1 mg intra-tracheal, LLOQ 10 pg/mL compound (I), 20 pg/mL fluticasone propionate
Protocol: Serial blood samples were taken for up to 8 h following dosing.

human lung tissue = assay: In vitro human lung tissue affinity experiments; format: in vitro ADME
[3] = Pharmacokinetics after intravenous (IV) and oral dosing in rats; format: in vivo, male Wistar Han rats; conditions: rat
thymus involution = assay: Rat model of thymus involution; format: in vivo; conditions: 3 daily IT doses of 100 μg
[4] = Lung absorption (mean absorption time) in man; format: in vivo; conditions: average; for time taken for 90% of lung dose to be absorbed: mathematical deconvolution of plasma concentration time data
[5] = Pharmacokinetics after intravenous administration in the anaesthetised pig; format: in vivo; conditions: IV mixture of the two compounds at 0.1 mg/kg
Excerpt: The clearance of these two glucocorticoids is similar is this experimental pig model.

[6] = tested on: human bronchial epithelial cells; assay: Cell transport and accumulation studies using human bronchial epithelial cells; format: in vitro ADME

Row | Compound | fold less active than the parent compound (glucocorticoid receptor) [fold] | EC50 [1] [nM] | manner of metabolism (human hepatocytes) | manner of metabolism (rat hepatocytes) | time after dosing up to which quantifiable in plasma [2] | systemic exposure compared with fluticasone propionate ([2]; dry powder delivery to the lungs of anaesthetised pigs) | affinity for human lung tissue (human lung tissue) | bioavailability ([3]; male, Wistar Han, plasma, oral, 0.1 mg/kg, oral 0.1 mg/kg vs IV 0.1 mg/kg) [%] | plasma clearance (in words) ([3]; in vivo) | reduction of thymus weight (thymus involution) [%] | mean absorption time (MAT) [4] [h] | time taken for 90% of lung dose to be absorbed [4] [h] | clearance compared with fluticasone propionate [5] | accumulation within the cell layer compared with fluticasone propionate [6] | flux across the cell layer compared with fluticasone propionate [6]
1 | C[C@@H]1CC2C3C[C@H](F)C4=CC(=O)C=C[C@]4(C)[C@@]3(F)[C@@H](O)C[C@]2(C)[C@@]1(OC(=O)c1ccco1)C(=O)O (stereo partly shown) [Metabolite (X)] | > 1000 | > 250 | – | – | – | – | – | – | – | – | – | – | – | – | –
2 | C[C@@H]1CC2C3C[C@H](F)C4=CC(=O)C=C[C@]4(C)[C@@]3(F)[C@@H](O)C[C@]2(C)[C@@]1(OC(=O)c1ccco1)C(=O)SCF (stereo partly drawn) [Compound of Formula (I), 6α,9α-Difluoro-17α-[(2-furanylcarbonyl)oxy]-11β-hydroxy-16α-methyl-3-oxo-androsta-1,4-diene-17β-carbothioic acid S-fluoromethyl ester] | – | – | metabolised in an identical manner to fluticasone propionate | metabolised in an identical manner to fluticasone propionate | up to 2 hours | markedly reduced systemic exposure; also recorded: significantly lower exposure | significantly higher affinity | 0.9 | approaching hepatic blood flow | 67 | 12 | 21 | similar | greater accumulation | reduced flux
3 | CCC(=O)O[C@]1(C(=O)SCF)[C@H](C)C[C@H]2[C@@H]3C[C@H](F)C4=CC(=O)C=C[C@]4(C)[C@@]3(F)[C@@H](O)C[C@@]21C [Fluticasone propionate, 6α,9α-Difluoro-17α-(1-oxopropoxy)-11β-hydroxy-16α-methyl-3-oxo-androsta-1,4-diene-17β-carbothioic acid S-fluoromethyl ester, reference compound] | – | – | – | – | up to 8 hours | – | – | – | – | 78 | 2.1 | 11 | – | – | –
